Source: ChEMBL document CHEMBL3045294, “Synthesis, anticonvulsant and toxicity screening of thiazolylthiadiazole derivatives” (Med Chem Res, 2011)
The source made the active and inactive calls. No cut-off for these calls is given here.

What was measured:
[1] = (§1) Neurotoxicity in ip dosed Mus musculus albino (mouse) after 4 hr rotorod test; type: toxicity, organism-based; details: albino, in vivo
[2] = (§2) Neurotoxicity in ip dosed Mus musculus albino (mouse) after 0.5 hr rotorod test; type: toxicity, organism-based; details: albino, in vivo
Mus musculus [3] = test: Anticonvulsant activity in Mus musculus albino (mouse) assessed as protection against maximal electroshock-induced seizures at 300 mg/kg, ip after 0.5 hr; type: functional, organism-based; set-up: dose 300 mg/kg
Mus musculus [4] = test: Anticonvulsant activity in ip dosed Mus musculus albino (mouse) assessed as protection against maximal electroshock-induced seizures after 4 hr; type: functional; details: read-out: MED
Mus musculus [5] = test: Anticonvulsant activity in Mus musculus albino (mouse) assessed as protection against subcutaneous pentylenetetrazol-induced seizures at 300 mg/kg, ip after 4 hr; type: functional, organism-based; set-up: dose 300 mg/kg
Mus musculus [6] = test: Anticonvulsant activity in Mus musculus albino (mouse) assessed as protection against subcutaneous pentylenetetrazol-induced seizures at 300 mg/kg, ip after 0.5 hr; type: functional, organism-based; set-up: dose 300 mg/kg
Mus musculus [7] = test: Anticonvulsant activity in ip dosed Mus musculus albino (mouse) assessed as protection against maximal electroshock-induced seizures after 0.5 hr; type: functional; details: read-out: MED
Mus musculus [8] = test: Anticonvulsant activity in ip dosed Mus musculus albino (mouse) assessed as protection against subcutaneous pentylenetetrazol-induced seizures after 0.5 hr; type: functional; details: read-out: MED
Mus musculus [9] = test: Anticonvulsant activity in ip dosed Mus musculus albino (mouse) assessed as protection against subcutaneous pentylenetetrazol-induced seizures after 4 hr; type: functional; details: read-out: MED
Mus musculus [10] = test: as §1; type: toxicity, organism-based; details: in vivo, 4 h
Mus musculus [11] = test: as §2; type: toxicity, organism-based; details: in vivo, 0.5 h
Mus musculus [12] = test: Anticonvulsant activity in Mus musculus albino (mouse) assessed as protection against maximal electroshock-induced seizures at 300 mg/kg, ip after 4 hr; type: functional, organism-based; set-up: dose 300 mg/kg
Mus musculus [13] = test: Anticonvulsant activity in ip dosed Mus musculus albino (mouse) assessed as protection against subcutaneous pentylenetetrazol-induced seizures; type: functional
Mus musculus [14] = test: Anticonvulsant activity in ip dosed Mus musculus albino (mouse) assessed as protection against maximal electroshock-induced seizures; type: functional
Mus musculus [15] = species: Mus musculus; test: Protective index, ratio of TD50 for Mus musculus albino (mouse) to ED50 for Mus musculus albino (mouse) by maximal electroshock-induced seizures test; type: functional
Mus musculus [16] = test: Protective index, ratio of TD50 for Mus musculus albino (mouse) to ED50 for Mus musculus albino (mouse) by subcutaneous pentylenetetrazol-induced seizures test; type: functional
Mus musculus [17] = test: Hepatoxicity in Mus musculus albino (mouse) assessed as effect on SGOT level in serum at 3 to 30 mg/kg, ip; type: toxicity, organism-based; set-up: dose 3-30 mg/kg, route intraperitoneal; details: in vivo
Mus musculus [18] = test: Hepatoxicity in Mus musculus albino (mouse) assessed as effect on SGPT level in serum at 3 to 30 mg/kg, ip; type: toxicity, organism-based; set-up: dose 3-30 mg/kg, route intraperitoneal; details: in vivo
Mus musculus [19] = test: Hepatoxicity in Mus musculus albino (mouse) assessed as effect on alkaline phosphatase level in serum at 3 to 30 mg/kg, ip; type: toxicity, organism-based; set-up: dose 3-30 mg/kg, route intraperitoneal; details: in vivo

Structure (SMILES)	MTD at 4 h [1] [mg/kg]	MTD at 0.5 h [2] [mg/kg]	Activity (Mus musculus [3])	minimal effective dose (Mus musculus [4]) [mg/kg]	Activity (Mus musculus [5])	Activity (Mus musculus [6])	minimal effective dose (Mus musculus [7]) [mg/kg]	minimal effective dose (Mus musculus [8]) [mg/kg]	minimal effective dose (Mus musculus [9]) [mg/kg]	MTC (Mus musculus [10]) [mg/kg]	MTC (Mus musculus [11]) [mg/kg]	Activity (Mus musculus [12])	ED50 (Mus musculus [13]) [mg/kg]	ED50 (Mus musculus [14]) [mg/kg]	Ratio TD50/ED50 (Mus musculus [15])	Ratio TD50/ED50 (Mus musculus [16])	TD50 at 0.5 h [2] [mg/kg]	Activity (Mus musculus [17])	Activity (Mus musculus [18])	Activity (Mus musculus [19])
Clc1ccc(-c2csc(Nc3nnc(Nc4ccccc4)s3)n2)cc1	300	300	inactive	300	inactive	inactive	–	–	–	–	–	–	–	–	–	–	–	–	–	–
Cc1ccc(Nc2nnc(Nc3nc(-c4ccccc4)cs3)s2)cc1	300	300	–	100	inactive	–	100	300	–	–	–	–	–	–	–	–	–	–	–	–
Cc1ccc(Nc2nnc(Nc3nc(-c4ccc(Cl)cc4)cs3)s2)cc1	300	300	–	100	–	inactive	300	–	300	–	–	–	–	–	–	–	–	–	–	–
COc1ccccc1Nc1nnc(Nc2nc(-c3ccc(Cl)cc3)cs2)s1	–	–	inactive	300	–	inactive	–	–	100	300	300	–	–	–	–	–	–	–	–	–
Cc1ccc(Nc2nnc(Nc3nc(-c4ccc(Br)cc4)cs3)s2)cc1	–	–	–	100	–	–	100	300	300	300	300	–	–	–	–	–	–	–	–	–
c1ccc(Nc2nnc(Nc3nc(-c4ccccc4)cs3)s2)cc1	–	300	–	–	–	inactive	300	–	100	300	–	inactive	–	–	–	–	–	–	–	–
Brc1ccc(-c2csc(Nc3nnc(Nc4ccccc4)s3)n2)cc1	–	–	–	–	inactive	inactive	300	–	–	300	300	inactive	–	–	–	–	–	–	–	–
COc1ccc(Nc2nnc(Nc3nc(-c4ccccc4)cs3)s2)cc1	300	–	–	100	–	inactive	100	–	300	–	300	–	–	–	–	–	–	–	–	–
COc1ccccc1Nc1nnc(Nc2nc(-c3ccc([N+](=O)[O-])cc3)cs2)s1	300	–	–	300	–	inactive	300	–	300	–	300	–	–	–	–	–	–	–	–	–
Cc1ccccc1Nc1nnc(Nc2nc(-c3ccc([N+](=O)[O-])cc3)cs2)s1	–	–	–	100	–	inactive	100	–	300	300	100	–	–	–	–	–	–	–	–	–
COc1ccccc1Nc1nnc(Nc2nc(-c3ccc(Br)cc3)cs2)s1	–	–	–	–	–	inactive	300	–	300	100	300	inactive	–	–	–	–	–	–	–	–
Cc1ccccc1Nc1nnc(Nc2nc(-c3ccc(Cl)cc3)cs2)s1	300	300	–	300	inactive	inactive	300	–	–	–	–	–	–	–	–	–	–	–	–	–
O=C1NC(=O)C(c2ccccc2)(c2ccccc2)N1 [PHENYTOIN]	–	–	–	30	inactive	inactive	30	–	–	100	100	–	> 300	–	–	–	–	–	–	–
CCC1(c2ccccc2)C(=O)NC(=O)NC1=O [PHENOBARBITAL]	–	–	–	30	inactive	inactive	100	–	–	300	100	–	13.2	21.8	–	–	–	–	–	–
CCC1(C)CC(=O)NC1=O (stereo unspecified) [ETHOSUXIMIDE]	300	300	inactive	–	–	–	–	100	300	–	–	inactive	> 100	8.8	8.1	<0.2	71.6	–	–	–
COc1ccc(Nc2nnc(Nc3nc(-c4ccc(Cl)cc4)cs3)s2)cc1	300	300	–	300	–	–	100	100	300	–	–	–	–	–	–	–	–	–	–	–
COc1ccccc1Nc1nnc(Nc2nc(-c3ccccc3)cs2)s1	300	300	–	300	–	–	100	100	300	–	–	–	–	–	–	–	–	–	–	–
Cc1ccccc1Nc1nnc(Nc2nc(-c3ccccc3)cs2)s1	–	300	–	–	inactive	inactive	300	–	–	300	–	inactive	–	–	–	–	–	–	–	–
O=[N+]([O-])c1ccc(-c2csc(Nc3nnc(Nc4ccccc4)s3)n2)cc1	300	–	–	–	inactive	inactive	100	–	–	–	100	inactive	–	–	–	–	–	–	–	–
Cc1ccccc1Nc1nnc(Nc2nc(-c3ccc(Br)cc3)cs2)s1	300	–	–	300	–	inactive	300	–	300	–	100	–	–	–	–	–	–	–	–	–
COc1ccc(Nc2nnc(Nc3nc(-c4ccc([N+](=O)[O-])cc4)cs3)s2)cc1	300	300	–	30	–	inactive	30	–	100	–	–	–	433	12.6	43.6	1.2	550	Toxic	Toxic	Toxic
COc1ccc(Nc2nnc(Nc3nc(-c4ccc(Br)cc4)cs3)s2)cc1	300	300	–	100	inactive	–	30	100	–	–	–	–	79.4	27.6	25.8	8.9	713	Toxic	Toxic	Toxic
CCCC(CCC)C(=O)O [VALPROIC ACID]	–	–	–	–	–	–	–	–	–	–	–	–	149	–	–	–	–	–	–	–
Cc1ccc(Nc2nnc(Nc3nc(-c4ccc([N+](=O)[O-])cc4)cs3)s2)cc1	300	300	–	100	inactive	–	30	300	–	–	–	–	232	19.1	11.3	0.9	216	Toxic	Toxic	Toxic
